Experimental data published in paper PMC11240139, “Exploring the antitumor potential of novel quinoline derivatives via tubulin polymerization inhibition in breast cancer; design, synthesis and molecular docking” (RSC Advances, 2024).

Key:
tubulin = target: T1, tubulin (Sus scrofa, UniProt P02550+P02554); parameters: method as in PMID 33203182, PMID 36893547, PMID 33730937, PMID 30525584, PMID 30530194; details: Fig. 4; read-out: tubulin inhibition IC50; cited from earlier work
T1 construct: purchased Cytoskeleton, USA

MDA-MB-231 cells [1] = experiment: Cell apoptosis analysis (annexin V-FITC/PI); format: cell-based; details: MDA-MB-231, IC50 dose, 24 h
Protocol: Annexin-V-FITC Apoptosis Detection Kit (Biovision, USA) was used to determine apoptotic cells according to manufacturer's instructions. Briefly, MDA-MB 231 cells (2 × 10^5 cells) were seeded in 6-well plates and cultured for 24 h. […] Cells were collected, washed with PBS and centrifuged. The cells were re-suspended in 500 μL of 1× binding buffer. 5 μL of annexin V-FITC and 5 μL of propidium iodide (PI […]) were added and the cells were incubated in the dark at room temperature for 5 min. The fluorescence of the stained cells was analyzed by flow cytometry using FACSCalibur (BD Biosciences, Mountain View, CA). The data were analyzed using the CellQuest software (BD Biosciences).[53,54]

MDA-MB-231 cells [2] = experiment: Cell cycle analysis by flow cytometry (PI); format: cell-based; details: MDA-MB-231, IC50 dose, 24 h; control 10.42%
Protocol: Propidium Iodide Flow Cytometry Kit for Cell Cycle Analysis (Abcam) was used according to manufacturer's instructions. Briefly, MDA-MB 231 cells (2 × 10^5 cells) were seeded in 6-well plates and cultured for 24 h. […] Cells were collected, washed with PBS and centrifuged. Subsequently, the cells were re-suspended and fixed in 66% ethanol on ice for at least 2 h. The cells were stained with a working solution containing propidium iodide (PI) in the dark at 37 °C for 30 min. DNA content of the cells were measured by flow cytometry using FACSCalibur (BD Biosciences, Mountain View, CA). The data were analyzed using the CellQuest software (BD Biosciences).[21]

T1 sequence (P02554 whole entry): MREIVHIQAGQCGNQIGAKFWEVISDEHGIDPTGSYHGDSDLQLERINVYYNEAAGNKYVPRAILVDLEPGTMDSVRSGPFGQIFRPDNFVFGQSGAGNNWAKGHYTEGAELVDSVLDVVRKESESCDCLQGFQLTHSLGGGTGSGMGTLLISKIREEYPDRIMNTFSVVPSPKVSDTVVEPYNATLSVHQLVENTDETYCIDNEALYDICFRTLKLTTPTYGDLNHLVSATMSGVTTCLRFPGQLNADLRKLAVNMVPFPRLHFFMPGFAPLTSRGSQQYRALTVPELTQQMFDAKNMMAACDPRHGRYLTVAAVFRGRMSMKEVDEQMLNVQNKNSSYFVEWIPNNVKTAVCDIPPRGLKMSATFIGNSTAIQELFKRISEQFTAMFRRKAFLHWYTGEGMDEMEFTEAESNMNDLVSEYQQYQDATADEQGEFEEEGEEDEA
T1 sequence (P02550 whole entry): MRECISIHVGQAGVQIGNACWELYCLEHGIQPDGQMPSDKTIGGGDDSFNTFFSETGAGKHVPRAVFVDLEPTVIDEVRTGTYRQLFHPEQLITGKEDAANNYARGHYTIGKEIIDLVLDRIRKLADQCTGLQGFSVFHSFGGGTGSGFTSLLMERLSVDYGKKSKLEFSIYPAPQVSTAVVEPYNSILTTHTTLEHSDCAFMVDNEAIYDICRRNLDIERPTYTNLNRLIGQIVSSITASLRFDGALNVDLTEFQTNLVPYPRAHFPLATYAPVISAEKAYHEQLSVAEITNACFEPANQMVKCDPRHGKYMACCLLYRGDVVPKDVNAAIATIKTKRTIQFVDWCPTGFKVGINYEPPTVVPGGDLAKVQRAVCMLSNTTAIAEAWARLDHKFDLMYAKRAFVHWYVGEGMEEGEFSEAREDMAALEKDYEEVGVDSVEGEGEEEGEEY

In the case of COc1cc(C(=O)N/N=C/c2cc3ccc(OC(C)C)cc3nc2OC)cc(OC)c1OC [IX], the IC50 (tubulin) is given as 1320 nM.

With COc1cc2c(c(OC)c1OC)-c1ccc(OC)c(=O)cc1[C@@H](NC(C)=O)CC2 [Colchicine, colchicine] the “Early Apoptosis (%)” value (MDA-MB-231 cells [1]) was 19.19 ± 0.87%, the “Late Apoptosis (%)” value (MDA-MB-231 cells [1]) was 6.62 ± 0.75% and the “Necrosis (%)” value (MDA-MB-231 cells [1]) was 11.41 ± 2.8%. The “Total Cell Death (%)” value (MDA-MB-231 cells [1]) was 37.22 ± 2.8%, the “Necrosis (%)” value (MDA-MB-231 cells [1]; listed as colchicine) was 11.41% and the “cells population at G2 and M phases” value (MDA-MB-231 cells [2]) was 26.51%.

For COc1ccc(OC)c(/C=C/C(=O)c2ccc(NC(=O)COc3cccc4cccnc34)cc2)c1 [X], the IC50 (tubulin) is given as 5320 nM.

In the case of C=C(c1ccc2c(ccn2C)c1)c1cc(C)nc2ccccc12 [XIII], the IC50 (tubulin) is listed as 2090 nM.

In the case of COc1ccc2nc(Cl)c(C3CC(c4ccc(N)cc4)=NN3c3ccccc3)cc2c1 (stereo not shown) [XIV], the IC50 (tubulin) is listed as 9.11 nM.
